# Test results taken from US20240366779A1, “SELECTIVE DRUG RELEASE FROM INTERNALIZED CONJUGATES OF BIOLOGICALLY ACTIVE COMPOUNDS” (priority 2021, published 2024).
# Numbered stars: 1 amine (or outer) side, 2 acyl side, 3 side chain; on linkers, the order of the positions; unused ones are H or OH. Square brackets hold non-standard residues; d marks the D form. Ends that are not written are not given here. Peptide text beside a SMILES is read from it. * marks the point of attachment. Dolaproine = CO[C@@H]([C@@H]1CCCN1)[C@@H](C)C(=O)O; Propanoyl(3-maleimido) = O=C1C=CC(=O)N1CCC(=O)*; Dil = CC[C@H](C)[C@H](NC)[C@@H](CC(=O)O)OC; Gla = N[C@@H](CC(C(=O)O)C(=O)O)C(=O)O; PABC = O=C(OCc1ccc(N[*:1])cc1)[*:2]; X1 = C[C@@H](N*)[C@@H](O)c1ccccc1; Met(O) = CS(=O)CC[C@H](N)C(=O)O; Cit = NC(=O)NCCC[C@H](N)C(=O)O; NMeV = CN[C@H](C(=O)O)C(C)C; Aib = CC(C)(N)C(=O)O
# What was measured:
# HPAFII cells = assay: In vitro cytotoxicity of Ag1 ADCs (CellTiter-Glo, 96 h); format: cell-based; details: Tables 3a and 3b, in words
# Method: In vitro cytotoxicity. The cytotoxicity of a tripeptide-based Antibody Drug Conjugate was measured by a cell proliferation assay employing the protocol described in Promega Corp. Technical Bulletin TB288; and Mendoza et al., 2002, Cancer Res. 62:5485-5488), the methods of which are specifically incorporated by reference herein. Briefly, an aliquot of 40 μl of cell culture containing about 400 cells in medium is deposited in each well of a 384-well, opaque-walled plate. A 10 μL aliquot of free drug or Ligand-Drug Conjugate is added to the experimental wells and incubated for 96 h and are then equilibrated to room temperature for approximately 30 minutes whereupon a volume of CellTiter-Glo™ reagent equal to the volume of cell culture medium present in each well is added. The contents are mixed for 2 minutes on an orbital shaker to induce cell lysis and the plate is incubated at room temperature for 10 minutes to stabilize the luminescence signal for recordation.
# The italicized values in Tables 3, 3a, and 3b indicate the percentage of cells remaining after 96 hr incubation at the maximum concentration of drug added. For convenience the numbering for the library members of Tables 2 and 2A are retained for the corresponding Drug linker compounds that are incorporated into the ADC of Tables 3, 3a, and 3b.
# [1] = system: CD30-expressing ALCL and HL cell lines (DEL, Karpas, KMH2, L428, L540cy); assay: In vitro cytotoxicity study of cAC10 ADCs (CellTiter-Glo, 96 hours); format: cell-based; details: FIG. 39A-E
# Method: ALCL and HL cell lines (DEL, DELBVR8F9, Karpas, KMH2, L428, AND L540cy) were plated in 150 uL complete growth media in 96-well, clear-bottomed, black-walled tissue culture treated plates (Corning). Cell plates were placed at 37° C. and 5% CO2 overnight to allow cells to equilibrate. The ADCs were thawed, and 4×8-point serial dilutions were prepared in RPMI-1640+10% fetal bovine serum (FBS). Fifty uL of each dilution were then added to each cell plate in triplicate. Treated cells were incubated at 37° C. and 5% CO2 for 96 hours. Cell viability was assayed using CellTiter-Glo® Reagent (PROMEGA). Raw data were analyzed in Graphpad Prism (San Diego, CA) using a nonlinear, 4-parameter curve fit model [Y=Bottom+(Top−Bottom)/(1+10^((Log EC50−X)*HillSlope))].
# neutrophil elastase = molecular target: T1, neutrophil elastase (Homo sapiens, UniProt P08246); assay: Neutrophil elastase assay of 8-load ADCs (QToF MS); format: biochemical; details: 8-load ADC, 37 C, 3 h; FIG. 6A
# T1 sequence (P08246 30-267): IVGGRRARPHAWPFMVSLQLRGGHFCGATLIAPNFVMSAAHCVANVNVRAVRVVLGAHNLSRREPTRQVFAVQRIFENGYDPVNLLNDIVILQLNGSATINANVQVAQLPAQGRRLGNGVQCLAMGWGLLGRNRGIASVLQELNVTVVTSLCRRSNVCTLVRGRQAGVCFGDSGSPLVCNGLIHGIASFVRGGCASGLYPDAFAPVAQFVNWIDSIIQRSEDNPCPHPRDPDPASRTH
# Method: To a mixture of 8-load ADC (5 ug), buffer (100 mM tris, 75 mM NaCl, pH 7.5; final concentration), and neutrophil elastase (100 ng) was added water to 20 uL. The reaction was incubated at 37 C for 3 h and then immediately analyzed by a QToF mass spectrometer.
# [2] = system: neutrophils and reticulocytes (bone marrow); assay: In vivo bone marrow toxicity of non-binding h00 conjugates (neutrophil and reticulocyte counts, tolerability); details: rat, in words
# Description: Toxicity Determinations. Each tripeptide-based Drug Linker compound was reacted with a reduced non-binding antibody to provide a non-binding control ADC and injected i.v. into female Sprague Dawley rats at various concentrations. Animals were euthanized on day 4 or 28 post dose.
# Having shown that ADC efficacy has been at least retained on replacing the dipeptide with most of the selected tripeptide sequences, differences in in vivo cytotoxicity against normal bone marrow tissue was explored by replacing the antibody targeting the Ag1 antigen with a non-binding control (h00) antibody. Each of the resulting non-targeting conjugates were then administered at 10 mg/Kg to rats, whose blood were analyzed at day 5 post-administration for neutrophil and reticulocyte counts as a proxy for bone marrow toxicity compared to sham treated animals. […]
# A subset of non-targeting conjugates were administered at higher doses to rats to determine the impact on bone marrow depletion. Blood from the doses rats were analyzed at day 8 and day 22 post-administration for neutrophil (FIG. 2C) and reticulocyte (FIG. 3C) counts as a proxy for bone marrow toxicity compared to sham treated animals. […]
# [3] = system: tumor tissue homogenates from HPAF-II, Ramos, SK-Mel-5 and SU-DHL-4 xenograft models; assay: Fluorescence assay: proteolysis of tripeptide library by tumor tissue homogenate; format: biochemical, mouse; details: Table 1A; normalized fluorescence averaged across 4 tumor homogenates
# Method: (§1) Fluorescence assay. To a 384 well plate was added a mixture of tumor or normal tissue homogenate and citrate buffer (100 mM, pH 4.5; 9 μL) followed by a fluorescently labelled library compound (1 μL; dissolved in 50% MeCN). The reaction was incubated at 37° C. and fluorescence (330 nm excitation, 450 nm emission) was detected several times over a 6-hr. period. The fluorescence fold change was determined by dividing the fluorescence value at each time point with the background fluorescence when no homogenate was added.
# Tissue Homogenization. […]
# The normalized fluorescence value for tumor homogenate proteolysis is an averaged value for tumor tissue homogenates derived from four mouse xenograft models.
# That value was then normalized for each peptide in each homogenate by dividing it by the average value for that homogenate. […] The normalized tumor tissue values of Table 1 were then determined by averaging the normalized fluorescence value for each peptide across all 4 cancer homogenates that were tested. […] The normalized normal tissue values of Table 1 were similarly calculated using homogenized bone marrow. The Tumor/Normal ratios of Table 1A were determined by dividing the normalized tumor tissue values by the normalized normal tissue values.
# [4] = system: normal human bone marrow homogenate; assay: Fluorescence assay: proteolysis of tripeptide library by normal tissue homogenate; format: biochemical; details: Table 1A, normalized fluorescence at final time point (275-315 min)
# Method: as §1
# Tissue Homogenization. Normal tissue or tumor tissue from mouse xenografts were suspended in buffer (50 mM Tris, 150 mM KCl, pH 7.0) and added to a tube containing Matrix D lysing beads (mpbio). The tissue was homogenized with a Precellys™ 24 homogenizer. The homogenized sample was centrifuged at 1000×g for 10 min and the resulting supernatant was collected then frozen at −80° C. until further use.
# The normalized normal tissue fluorescence values are from proteolysis by normal human bone marrow.
# That value was then normalized for each peptide in each homogenate by dividing it by the average value for that homogenate. […] The normalized normal tissue values of Table 1 were similarly calculated using homogenized bone marrow.
Compound,cytotoxicity relative to comparator dipeptide-based ADC (1) (HPAFII cells),efficacy relative to comparator dipeptide-based ADC (1) (HPAFII cells),also measured
CC[C@H](C)[C@@H]([C@@H](CC(=O)N1CCC[C@H]1[C@H](OC)[C@@H](C)C(=O)N[C@H](C)[C@@H](O)c1ccccc1)OC)N(C)C(=O)[C@@H](NC(=O)[C@H](C(C)C)N(C)C(=O)OCc1ccc(NC(=O)[C@H](CCCNC(N)=O)NC(=O)[C@H](C)NC(=O)[C@@H](CC(C)C)NC(=O)CCN2C(=O)C=CC2=O)cc1)C(C)C [Compound 8] ({Propanoyl(3-maleimido)}-[dL]A[Cit][PABC][NMeV]V[Dil][Dolaproine]-X1),less cytotoxic,similarly efficacious,
CC[C@H](C)[C@@H]([C@@H](CC(=O)N1CCC[C@H]1[C@H](OC)[C@@H](C)C(=O)N[C@H](C)[C@@H](O)c1ccccc1)OC)N(C)C(=O)[C@@H](NC(=O)[C@H](C(C)C)N(C)C(=O)OCc1ccc(NC(=O)[C@H](CCC(=O)O)NC(=O)[C@H](C)NC(=O)[C@@H](C)NC(=O)CCN2C(=O)C=CC2=O)cc1)C(C)C [Compound 22] ({Propanoyl(3-maleimido)}-[dA]AE[PABC][NMeV]V[Dil][Dolaproine]-X1),less cytotoxic,similarly efficacious,
CC[C@H](C)[C@@H]([C@@H](CC(=O)N1CCC[C@H]1[C@H](OC)[C@@H](C)C(=O)N[C@H](C)[C@@H](O)c1ccccc1)OC)N(C)C(=O)[C@@H](NC(=O)[C@H](C(C)C)N(C)C(=O)OCc1ccc(NC(=O)[C@H](CC(=O)O)NC(=O)[C@H](C)NC(=O)[C@@H](CC(C)C)NC(=O)CCN2C(=O)C=CC2=O)cc1)C(C)C [Compound 24] ({Propanoyl(3-maleimido)}-[dL]AD[PABC][NMeV]V[Dil][Dolaproine]-X1),less cytotoxic,similarly efficacious,
CC[C@H](C)[C@@H]([C@@H](CC(=O)N1CCC[C@H]1[C@H](OC)[C@@H](C)C(=O)N[C@H](C)[C@@H](O)c1ccccc1)OC)N(C)C(=O)[C@@H](NC(=O)[C@H](C(C)C)N(C)C(=O)OCc1ccc(NC(=O)[C@H](CC(C(=O)O)C(=O)O)NC(=O)[C@H](C)NC(=O)[C@@H](CC(C)C)NC(=O)CCN2C(=O)C=CC2=O)cc1)C(C)C [Compound 26] ({Propanoyl(3-maleimido)}-[dL]A[Gla][PABC][NMeV]V[Dil][Dolaproine]-X1),less cytotoxic,similarly efficacious,
CC[C@H](C)[C@@H]([C@@H](CC(=O)N1CCC[C@H]1[C@H](OC)[C@@H](C)C(=O)N[C@H](C)[C@@H](O)c1ccccc1)OC)N(C)C(=O)[C@@H](NC(=O)[C@H](C(C)C)N(C)C(=O)OCc1ccc(NC(=O)[C@H](CCC(=O)O)NC(=O)[C@H](CO)NC(=O)[C@H](Cc2ccccc2)NC(=O)CCN2C(=O)C=CC2=O)cc1)C(C)C [Compound 30] ({Propanoyl(3-maleimido)}-FSE[PABC][NMeV]V[Dil][Dolaproine]-X1),less cytotoxic,similarly efficacious,
"CC[C@H](C)[C@@H]([C@@H](CC(=O)N1CCC[C@H]1[C@H](OC)[C@@H](C)C(=O)N[C@H](C)[C@@H](O)c1ccccc1)OC)N(C)C(=O)[C@@H](NC(=O)[C@@H](NC)C(C)C)C(C)C [SGN-1010, MMAE] (H-[NMeV]V[Dil][Dolaproine]-X1)",,,cytotoxic activity (cell viability) [1]: all cell lines are sensitive
"CC[C@H](C)[C@@H]([C@@H](CC(=O)N1CCC[C@H]1[C@H](OC)[C@@H](C)C(=O)N[C@H](C)[C@@H](O)c1ccccc1)OC)N(C)C(=O)[C@@H](NC(=O)[C@H](C(C)C)N(C)C(=O)OCc1ccc(NC(=O)[C@H](CCC(=O)O)NC(=O)[C@H](C)NC(=O)[C@@H](CC(C)C)NC(=O)CCN2C(=O)C=CC2=O)cc1)C(C)C [compound 5, mp-dLAE-PABC-MMAE] ({Propanoyl(3-maleimido)}-[dL]AE[PABC][NMeV]V[Dil][Dolaproine]-X1)",,,percentage of drug cleaved from the heavy chain by neutrophil elastase (neutrophil elastase): lower than that found for non-targeted ADC 37
CC[C@H](C)[C@@H]([C@@H](CC(=O)N1CCC[C@H]1[C@H](OC)[C@@H](C)C(=O)N[C@H](C)[C@@H](O)c1ccccc1)OC)N(C)C(=O)[C@@H](NC(=O)[C@H](C(C)C)N(C)C(=O)OCc1ccc(NC(=O)[C@H](CCC(=O)O)NC(=O)C(C)(C)NC(=O)[C@@H](CC(C)C)NC(=O)CCN2C(=O)C=CC2=O)cc1)C(C)C [compound 38] ({Propanoyl(3-maleimido)}-[dL][Aib]E[PABC][NMeV]V[Dil][Dolaproine]-X1),less cytotoxic,less cytotoxic and efficacious,toxicity to bone marrow [2]: less toxic to rat bone marrow
[dL]-Leu-[Met(O)] [DLeu-Leu-Met(O)],,,Normalized Tumor Tissue [3]: 1.70; Normalized Normal Tissue [4]: 0.66
